In ChEMBL document CHEMBL5303573, “Mapping human microbiome drug metabolism by gut bacteria and their genes” (Nature, 2019):

Columns and labels:
Details in all cases: 2 µM
[1] = target: T1, Nitroreductase domain-containing protein (Phocaeicola dorei, UniProt B6W3P3); experiment: (§1) The drug is tested on Bacteroides dorei strain: DSM17855 for biotransformation. The drug concentrations were measured before and after a 12-h incubation by liquid-chromatography-coupled mass spectrometry (LC–MS); format: ADME; set-up: dose 2 uM
T1 sequence (B6W3P3 whole entry): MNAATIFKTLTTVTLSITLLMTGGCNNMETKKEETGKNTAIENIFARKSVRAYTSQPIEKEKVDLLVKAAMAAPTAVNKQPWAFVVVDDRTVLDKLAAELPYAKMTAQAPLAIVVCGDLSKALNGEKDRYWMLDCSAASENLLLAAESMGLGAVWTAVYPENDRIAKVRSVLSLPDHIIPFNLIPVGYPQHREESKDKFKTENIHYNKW

[2] = target: T2, SGNH hydrolase-type esterase domain-containing protein (Phocaeicola dorei, UniProt B6W1J1); experiment: as §1; format: ADME; set-up: dose 2 uM
T2 sequence (B6W1J1 whole entry): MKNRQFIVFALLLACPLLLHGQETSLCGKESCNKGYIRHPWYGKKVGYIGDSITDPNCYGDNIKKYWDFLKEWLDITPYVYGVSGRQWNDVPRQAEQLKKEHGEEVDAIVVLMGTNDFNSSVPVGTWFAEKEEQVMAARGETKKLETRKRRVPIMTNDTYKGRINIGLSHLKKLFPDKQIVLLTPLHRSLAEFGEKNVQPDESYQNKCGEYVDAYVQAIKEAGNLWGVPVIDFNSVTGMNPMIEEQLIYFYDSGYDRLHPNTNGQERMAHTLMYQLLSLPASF

[3] = target: T3, SGNH hydrolase-type esterase domain-containing protein (Phocaeicola dorei, UniProt B6W293); experiment: as §1; format: ADME; set-up: dose 2 uM
T3 sequence (B6W293 whole entry): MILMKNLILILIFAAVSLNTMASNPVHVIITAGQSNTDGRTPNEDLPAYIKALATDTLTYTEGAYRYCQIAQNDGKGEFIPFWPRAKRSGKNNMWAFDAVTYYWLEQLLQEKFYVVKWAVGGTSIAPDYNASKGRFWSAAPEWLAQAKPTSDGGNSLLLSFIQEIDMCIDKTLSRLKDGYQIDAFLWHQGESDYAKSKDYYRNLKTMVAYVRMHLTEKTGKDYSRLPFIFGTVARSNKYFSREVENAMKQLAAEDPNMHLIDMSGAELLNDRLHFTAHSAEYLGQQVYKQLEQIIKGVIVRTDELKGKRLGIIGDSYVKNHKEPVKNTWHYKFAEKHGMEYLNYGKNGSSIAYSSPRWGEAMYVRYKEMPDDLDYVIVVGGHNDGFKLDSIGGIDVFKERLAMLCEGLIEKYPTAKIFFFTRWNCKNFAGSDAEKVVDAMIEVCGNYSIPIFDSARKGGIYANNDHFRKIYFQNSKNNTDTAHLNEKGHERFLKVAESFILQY

[4] = target: T4, Acyltransferase 3 domain-containing protein (Phocaeicola dorei, UniProt B6W2J3); experiment: as §1; format: ADME; set-up: dose 2 uM
T4 sequence (B6W2J3 whole entry): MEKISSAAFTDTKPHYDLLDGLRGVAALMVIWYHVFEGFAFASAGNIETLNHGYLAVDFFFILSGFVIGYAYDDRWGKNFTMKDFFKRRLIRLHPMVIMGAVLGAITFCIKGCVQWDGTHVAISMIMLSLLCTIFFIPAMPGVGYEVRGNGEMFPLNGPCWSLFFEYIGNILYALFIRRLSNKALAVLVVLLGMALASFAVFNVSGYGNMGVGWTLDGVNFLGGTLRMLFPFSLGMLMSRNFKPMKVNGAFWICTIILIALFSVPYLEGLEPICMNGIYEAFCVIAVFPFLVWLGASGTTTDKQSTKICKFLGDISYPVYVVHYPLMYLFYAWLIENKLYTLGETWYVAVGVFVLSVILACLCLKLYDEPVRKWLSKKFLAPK

[5] = target: T5, Nitroreductase domain-containing protein (Phocaeicola dorei, UniProt B6VU18); experiment: as §1; format: ADME; set-up: dose 2 uM
T5 sequence (B6VU18 whole entry): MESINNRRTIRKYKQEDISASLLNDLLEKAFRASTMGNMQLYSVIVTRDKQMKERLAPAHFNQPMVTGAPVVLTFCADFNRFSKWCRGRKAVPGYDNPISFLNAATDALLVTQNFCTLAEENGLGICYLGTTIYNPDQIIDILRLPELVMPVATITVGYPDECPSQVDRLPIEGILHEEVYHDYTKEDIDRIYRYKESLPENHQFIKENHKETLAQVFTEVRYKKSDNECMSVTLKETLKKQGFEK

[6] = target: T6, Steroid 5-alpha reductase C-terminal domain-containing protein (Phocaeicola dorei, UniProt B6W0N3); experiment: as §1; format: ADME; set-up: dose 2 uM
T6 sequence (B6W0N3 whole entry): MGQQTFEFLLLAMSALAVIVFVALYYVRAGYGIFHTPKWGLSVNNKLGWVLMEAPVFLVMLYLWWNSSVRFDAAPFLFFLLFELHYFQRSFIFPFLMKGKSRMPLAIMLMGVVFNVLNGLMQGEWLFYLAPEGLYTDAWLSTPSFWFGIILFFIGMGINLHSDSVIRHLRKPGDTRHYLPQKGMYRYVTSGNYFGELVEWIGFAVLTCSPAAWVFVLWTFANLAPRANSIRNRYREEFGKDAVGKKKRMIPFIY

[7] = target: T7, SGNH hydrolase-type esterase domain-containing protein (Phocaeicola dorei, UniProt B6VTE7); experiment: as §1; format: ADME; set-up: dose 2 uM
T7 sequence (B6VTE7 whole entry): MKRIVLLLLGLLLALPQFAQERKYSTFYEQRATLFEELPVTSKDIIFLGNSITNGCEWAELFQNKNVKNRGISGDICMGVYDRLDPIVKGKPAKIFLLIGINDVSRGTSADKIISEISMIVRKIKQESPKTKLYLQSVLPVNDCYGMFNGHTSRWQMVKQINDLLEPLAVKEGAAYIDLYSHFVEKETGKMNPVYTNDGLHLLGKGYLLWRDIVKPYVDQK

Esterase = target: T8, Esterase (Phocaeicola dorei, UniProt B6W2J6); experiment: as §1; format: ADME; set-up: dose 2 uM
T8 sequence (B6W2J6 whole entry): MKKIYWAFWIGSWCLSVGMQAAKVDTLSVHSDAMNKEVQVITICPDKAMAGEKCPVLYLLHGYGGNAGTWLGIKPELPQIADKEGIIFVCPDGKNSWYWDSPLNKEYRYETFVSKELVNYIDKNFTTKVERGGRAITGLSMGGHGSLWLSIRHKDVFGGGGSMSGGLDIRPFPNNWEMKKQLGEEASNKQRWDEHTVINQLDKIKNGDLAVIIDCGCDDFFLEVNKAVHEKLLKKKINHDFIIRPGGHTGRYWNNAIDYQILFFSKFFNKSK

[8] = The drug is tested on Proteus penneri strain: ATCC35198 for biotransformation. The drug concentrations were measured before and after a 12-h incubation by liquid-chromatography-coupled mass spectrometry (LC–MS)
[9] = The drug is tested on Providencia alcalifaciens strain: DSM30120 for biotransformation. The drug concentrations were measured before and after a 12-h incubation by liquid-chromatography-coupled mass spectrometry (LC–MS)
[10] = The drug is tested on Bacteroides fragilis strain: T(B)9 for biotransformation. The drug concentrations were measured before and after a 12-h incubation by liquid-chromatography-coupled mass spectrometry (LC–MS)

Row | Bacterial Biotransformation [1] | Bacterial Biotransformation [2] | Bacterial Biotransformation [3] | Bacterial Biotransformation [4] | Bacterial Biotransformation [5] | Bacterial Biotransformation [6] | Bacterial Biotransformation [7] | Bacterial Biotransformation (Esterase) | Bacterial Biotransformation [8] | Bacterial Biotransformation [9] | Bacterial Biotransformation [10] | SMILES
1 |  |  |  |  |  |  |  |  | Compound NOT metabolized | Compound NOT metabolized |  | CC(C)NCC(O)COc1ccc(CC(N)=O)cc1 (stereo not given) [ATENOLOL]
2 |  |  |  |  |  |  |  |  | Compound NOT metabolized | Compound NOT metabolized | Compound NOT metabolized | CC(C)NCC(O)COc1ccc(CCOCC2CC2)cc1 (stereo not given) [BETAXOLOL]
3 | Compound NOT metabolized | Compound metabolized | Compound metabolized | Compound NOT metabolized | Compound NOT metabolized | Compound NOT metabolized | Compound metabolized | Compound metabolized |  |  |  | CC(=O)Oc1ccc(C(c2ccc(OC(C)=O)cc2)c2ccccn2)cc1 [BISACODYL]
4 |  |  |  |  |  |  |  |  | Compound NOT metabolized | Compound NOT metabolized | Compound metabolized | O=C(O)COCCN1CCN(C(c2ccccc2)c2ccc(Cl)cc2)CC1 (stereo not given) [CETIRIZINE]
5 |  |  |  |  |  |  |  |  | Compound NOT metabolized | Compound NOT metabolized | Compound NOT metabolized | CN(C)CCC=C1c2ccccc2C=Cc2ccccc21 [CYCLOBENZAPRINE]
6 | Compound NOT metabolized | Compound metabolized | Compound metabolized | Compound NOT metabolized | Compound NOT metabolized | Compound NOT metabolized | Compound metabolized | Compound metabolized |  |  |  | CC(=O)Nc1ccc(OC(C)=O)cc1 [DIACETAMATE]
7 | Compound NOT metabolized | Compound metabolized | Compound metabolized | Compound NOT metabolized | Compound NOT metabolized | Compound NOT metabolized | Compound metabolized | Compound metabolized |  |  |  | COc1ccnc(C[S+]([O-])c2nc3ccc(OC(F)F)cc3[nH]2)c1OC (stereo not given) [PANTOPRAZOLE]

Further lines, the molecule ahead of its results:

Row | SMILES | Bacterial Biotransformation [1] | Bacterial Biotransformation [2] | Bacterial Biotransformation [3] | Bacterial Biotransformation [4] | Bacterial Biotransformation [5] | Bacterial Biotransformation [6] | Bacterial Biotransformation [7] | Bacterial Biotransformation (Esterase) | Bacterial Biotransformation [8] | Bacterial Biotransformation [9] | Bacterial Biotransformation [10]
8 | C[C@@H]1CC[C@H]2[C@@H](C)C(=O)O[C@@H]3O[C@@]4(C)CC[C@@H]1[C@]32OO4 [ARTEMISININ] | Compound NOT metabolized | Compound NOT metabolized | Compound NOT metabolized | Compound NOT metabolized | Compound NOT metabolized | Compound NOT metabolized | Compound NOT metabolized | Compound NOT metabolized |  |  | 
9 | CN/C(=N/CCSCc1nc[nH]c1C)NC#N [CIMETIDINE] |  |  |  |  |  |  |  |  | Compound NOT metabolized | Compound NOT metabolized | Compound metabolized
10 | Clc1cccc(Cl)c1N=C1NCCN1 [CLONIDINE] |  |  |  |  |  |  |  |  | Compound NOT metabolized | Compound NOT metabolized | Compound metabolized
11 | COC(=O)[C@H](c1ccccc1Cl)N1CCc2sccc2C1.O=S(=O)(O)O [CLOPIDOGREL BISULFATE] |  |  |  |  |  |  |  |  | Compound NOT metabolized | Compound NOT metabolized | Compound metabolized
12 | CN1CCN(C2=Nc3cc(Cl)ccc3Nc3ccccc32)CC1 [CLOZAPINE] |  |  |  |  |  |  |  |  | Compound NOT metabolized |  | 
13 | O=P1(N(CCCl)CCCl)NCCCO1 (stereo not given) [CYCLOPHOSPHAMIDE ANHYDROUS] |  |  |  |  |  |  |  |  | Compound NOT metabolized | Compound NOT metabolized | Compound NOT metabolized
14 | C#C[C@]1(O)CC[C@H]2[C@@H]3CCC4=Cc5oncc5C[C@]4(C)[C@H]3CC[C@@]21C [DANAZOL] | Compound NOT metabolized | Compound NOT metabolized | Compound NOT metabolized | Compound NOT metabolized | Compound NOT metabolized | Compound NOT metabolized | Compound NOT metabolized | Compound NOT metabolized |  |  | 
15 | CC(=O)OCC(=O)[C@@]12N=C(C)O[C@@H]1C[C@H]1[C@@H]3CCC4=CC(=O)C=C[C@]4(C)[C@H]3[C@@H](O)C[C@@]12C [DEFLAZACORT] | Compound NOT metabolized |  |  | Compound NOT metabolized | Compound NOT metabolized | Compound NOT metabolized |  | Compound NOT metabolized |  |  | 
16 | CCN(CC)C(=O)/C(C#N)=C/c1cc(O)c(O)c([N+](=O)[O-])c1 [ENTACAPONE] | Compound NOT metabolized | Compound NOT metabolized | Compound NOT metabolized | Compound NOT metabolized | Compound NOT metabolized | Compound NOT metabolized | Compound NOT metabolized | Compound NOT metabolized |  |  | 
17 | c1ccc([C@H]2CN3CCSC3=N2)cc1 [LEVAMISOLE] |  |  |  |  |  |  |  |  | Compound metabolized |  | Compound metabolized
18 | CCOC(=O)C1=C(C)NC(C)=C(C(=O)OC)C1c1cccc([N+](=O)[O-])c1 (stereo not given) [NITRENDIPINE] | Compound metabolized | Compound NOT metabolized | Compound NOT metabolized | Compound NOT metabolized | Compound metabolized | Compound NOT metabolized | Compound NOT metabolized | Compound NOT metabolized |  |  | 
19 | Nc1ccc(/N=N/c2ccccc2)c(N)n1 [PHENAZOPYRIDINE] | Compound NOT metabolized | Compound NOT metabolized | Compound NOT metabolized | Compound NOT metabolized | Compound NOT metabolized | Compound NOT metabolized | Compound NOT metabolized | Compound NOT metabolized |  |  | 
